Results taken from patent US10933147B2, “Imaging of metastatic or recurrent cancer” (Blue Earth Diagnostics Limited, priority 2015, dated 2021).

Assays:
[1] = human, in vivo
Experimental: FIGS. 1a and 1b show accumulation of FACBC in the Virchow's node when the FACBC is injected into the left arm.
In some embodiments, the right arm may be preferred as stasis in the axillary vein upon injection in the left arm may be misinterpreted as a metastatic lymph node called Virchow's node, which is located in the left supraclavicular fossa (the area above the left clavicle, or collar bone). For example, FIGS. 1a and 1b show accumulation of FACBC in the Virchow's node when the FACBC is injected into the left arm.

[2] = tested on: known prostate carcinoma recurrence; experiment: PET time activity curves in prostate carcinoma recurrence; type: in vivo, human
Experimental: (§1) Regions in marrow (ilium), muscle (gluteus), and bladder reached a plateau at 4.5 minutes that remained constant throughout the imaging period.
(§2) The time required for [^18F]-FACBC to accumulate in tumour cells in steps a) and c) of the aspects described above may be about 5 minutes or less after [^18F]-FACBC is administered. Optionally, the time taken for [^18F]-FACBC to accumulate is 3 to 5 minutes, for example 4 minutes. This therefore allows image acquisition to start 3 to 5 minutes after administration, for example 4 minutes after [^18F]-FACBC administration. […] Regions in marrow (ilium), muscle (gluteus), and bladder reached a plateau at 4.5 minutes that remained constant throughout the imaging period.

[3] = PET time activity curves in reference regions; type: in vivo, human; details: regions in marrow (ilium), muscle (gluteus), and bladder; remained constant throughout the imaging period
Experimental: as §1, §2

standardized uptake value (SUV) [1]: > 200
plateau of uptake lasts to ([2]; known prostate carcinoma recurrence, after the maximum): 30 min
gradual clearance ([2]; known prostate carcinoma recurrence, after the plateau, out to 60 minutes): 9 %/min
time of maximum uptake ([2]; rapid uptake in known prostate carcinoma recurrence): 4.5 min
time at which plateau is reached [3]: 4.5 min
Compound: N[C@]1(C(=O)O)C[C@@H](F)C1 [fluciclovine, anti-1-amino-3-^18F-fluorocyclobutane-1-carboxylic acid]
